Results reported in paper PMC2686265, “ATP and MO25α Regulate the Conformational State of the STRADα Pseudokinase and Activation of the LKB1 Tumour Suppressor” (PLoS Biology, 2009).
Like-named read-outs stand apart in the source and are kept apart here.

Biological target: T1, STRADα (Homo sapiens, UniProt Q7RTN6)
T1 construct: wild-type and mutant forms of STRADα (residues 54–431) and MO25α (residues 1–341) were expressed individually as GST fusion proteins in E. coli; GST (cleaved yes); made in house; host or cells: E. coli
T1 sequence (Q7RTN6 54-431): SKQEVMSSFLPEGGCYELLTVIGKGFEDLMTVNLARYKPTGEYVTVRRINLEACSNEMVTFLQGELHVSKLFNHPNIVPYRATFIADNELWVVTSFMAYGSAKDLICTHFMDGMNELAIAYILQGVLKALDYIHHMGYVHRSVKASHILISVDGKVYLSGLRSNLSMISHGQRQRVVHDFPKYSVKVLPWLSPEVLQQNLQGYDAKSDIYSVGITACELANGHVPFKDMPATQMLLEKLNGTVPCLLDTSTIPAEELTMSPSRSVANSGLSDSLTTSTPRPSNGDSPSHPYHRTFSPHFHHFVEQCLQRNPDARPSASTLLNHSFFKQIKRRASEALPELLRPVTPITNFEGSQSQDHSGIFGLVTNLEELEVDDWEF
Assay: Displacement of TNP-ATP by ATP and ADP (fluorescence)
Type: binding
Conditions: STRADα alone, No Mg2+, displacement of 5 µM TNP-ATP
Experimental: Fluorescent measurements of TNP-ATP (Molecular Probes), were obtained at 25°C in assay buffer (with the addition of 0.5–1.0 mM MgCl2 where indicated) using 1-cm pathlength cuvettes in a VARIAN Cary Eclipse Fluorescence spectrophotometer (Varian). Fluorescence was recorded using a 410-nm/540-nm excitation/emission wavelengths from 500 to 600 nm. In all cases, signal from the TNP-ATP buffer control was subtracted as background. For all binding studies, STRADα and STRADα mutants were assayed at 2 µM. In cases where STRADα/MO25α complexes were assayed, wild-type or mutant MO25α (2 µM) were preincubated for at least 2 h at 4°C prior to a fluorescence binding experiment. For saturation binding experiments, concentrated stocks of TNP-ATP were added stepwise, covering a range of concentrations from 0.05 to 30 µM. For displacement experiments, the concentration of TNP-ATP was fixed at 5 µM, and ATP or ADP was titrated in, covering a range of concentrations from 0.05 to 500 µM.
All data were analysed using GraphPad-PRISM software (http://www.graphpad.com). […] In the displacement studies, equilibrium constant values for ATP and ADP were calculated by first determining the logEC50 value, using a standard dose-response equation: F x/F max = minimum+(maximum−minimum)/(1+10^([N]−logEC 50 ^)), where [N] equals the concentration of added nucleotide, and F x/F max represents the fractional occupancy. […]

Row | SMILES | Kd (read-out: Kd ADP) | Kd (read-out: Kd ATP)
1 | Nc1ncnc2c1ncn2[C@@H]1O[C@H](COP(=O)(O)OP(=O)(O)O)[C@@H](O)[C@H]1O [ADP] | 2000 to 3000 nM | 
2 | Nc1ncnc2c1ncn2[C@@H]1O[C@H](COP(=O)(O)OP(=O)(O)OP(=O)(O)O)[C@@H](O)[C@H]1O [ATP] |  | 2000 to 3000 nM
